# Measured values from PubChem BioAssay AID624129 (Sanford-Burnham Center for Chemical Genomics, 2012).
# The source made the active and inactive calls. The rule behind the calls is not given here.
# Tests used:
# Test in all cases: CXCR6 receptor antagonists, dose response, cell-based, beta-arrestin, DiscoveRx, APJ panel, uHTS hits (AID 624129)
# [1] = target: C-X-C chemokine receptor type 6 (Homo sapiens) (UniProt O00574); settings: CXCR6 beta-arrestin (DiscoveRx) antagonist cell assay; for inhibition: CXCR6, run 1, dose range 2, at 80 µM (top of the series)
# Sequence of C-X-C chemokine receptor type 6 (Homo sapiens) (O00574 whole entry, looked up): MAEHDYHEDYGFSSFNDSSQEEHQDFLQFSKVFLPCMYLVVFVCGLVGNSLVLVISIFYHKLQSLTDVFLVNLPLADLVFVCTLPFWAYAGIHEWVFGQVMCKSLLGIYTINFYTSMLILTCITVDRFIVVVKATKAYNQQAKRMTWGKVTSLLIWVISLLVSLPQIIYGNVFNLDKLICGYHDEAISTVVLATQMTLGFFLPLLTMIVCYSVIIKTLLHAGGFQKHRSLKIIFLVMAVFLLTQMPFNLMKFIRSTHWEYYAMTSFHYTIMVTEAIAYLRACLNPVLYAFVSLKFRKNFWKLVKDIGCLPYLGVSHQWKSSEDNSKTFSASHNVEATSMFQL
# [2] = target: Beta-galactosidase (Escherichia coli) (UniProt Q8VNN2); settings: CXCR6 beta-arrestin (DiscoveRx) antagonist cell assay, b-galactosidase
# Sequence of Beta-galactosidase (Escherichia coli) (Q8VNN2 whole entry, looked up): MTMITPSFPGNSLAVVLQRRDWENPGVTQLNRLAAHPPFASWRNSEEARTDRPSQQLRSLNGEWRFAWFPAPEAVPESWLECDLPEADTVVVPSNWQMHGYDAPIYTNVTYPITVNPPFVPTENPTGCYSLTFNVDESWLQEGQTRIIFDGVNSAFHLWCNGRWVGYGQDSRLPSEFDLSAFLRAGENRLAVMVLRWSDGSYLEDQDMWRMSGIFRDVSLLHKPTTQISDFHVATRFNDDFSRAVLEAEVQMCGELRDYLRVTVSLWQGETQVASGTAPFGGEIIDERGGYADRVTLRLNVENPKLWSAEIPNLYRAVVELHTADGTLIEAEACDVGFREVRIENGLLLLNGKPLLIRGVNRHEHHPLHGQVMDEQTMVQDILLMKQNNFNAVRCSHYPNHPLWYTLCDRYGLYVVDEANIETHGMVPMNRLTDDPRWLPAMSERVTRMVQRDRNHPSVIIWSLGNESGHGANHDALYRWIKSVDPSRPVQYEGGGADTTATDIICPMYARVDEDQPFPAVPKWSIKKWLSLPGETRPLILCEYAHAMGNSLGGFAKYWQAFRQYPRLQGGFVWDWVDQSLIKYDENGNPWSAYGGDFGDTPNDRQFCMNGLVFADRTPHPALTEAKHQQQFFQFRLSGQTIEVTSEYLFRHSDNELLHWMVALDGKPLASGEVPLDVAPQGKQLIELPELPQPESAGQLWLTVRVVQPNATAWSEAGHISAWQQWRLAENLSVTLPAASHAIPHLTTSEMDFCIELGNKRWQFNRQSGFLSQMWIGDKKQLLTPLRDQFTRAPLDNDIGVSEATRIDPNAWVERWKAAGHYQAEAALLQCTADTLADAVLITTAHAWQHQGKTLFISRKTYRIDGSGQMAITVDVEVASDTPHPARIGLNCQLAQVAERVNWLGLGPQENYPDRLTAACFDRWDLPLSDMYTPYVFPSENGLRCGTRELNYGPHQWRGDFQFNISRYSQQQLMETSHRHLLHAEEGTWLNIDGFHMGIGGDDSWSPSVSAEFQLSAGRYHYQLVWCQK
# [3] = target: Apelin receptor (Homo sapiens) (UniProt P35414); settings: CXCR6 beta-arrestin (DiscoveRx) antagonist cell assay, APJ
# [4] = target: C-C chemokine receptor type 6 (Homo sapiens) (UniProt P51684); settings: CXCR6 beta-arrestin (DiscoveRx) antagonist cell assay
# [5] = CXCR6, dose range 1, mean IC50 across replicates
# [6] = dose range 1, mean IC50 across replicates
# [7] = CCR6, dose range 1, mean IC50 across replicates
Structure (SMILES),"IC50 ([1]; CXCR6, dose range 1)","IC50 [1, 5]",inhibition [1],"IC50 ([1]; CXCR6, run 2, dose range 1)",IC50 ([2]; dose range 1),"IC50 [2, 6]",IC50 ([3]; dose range 1),"IC50 [3, 6]","IC50 ([3]; run 2, dose range 1)","IC50 ([3]; run 3, dose range 1)","IC50 ([4]; CCR6, dose range 1)","IC50 [4, 7]","IC50 ([4]; CCR6, run 2, dose range 1)","IC50 ([1]; CXCR6, run 1, dose range 2)","IC50 ([1]; CXCR6, run 2, dose range 2)"
O=C(Cn1sc2ccccc2c1=O)NC12CC3CC(CC(C3)C1)C2,2.69 µM,2.42 µM,70.8%,2.16 µM,> 80 µM (inactive),> 80 µM,2.02 µM,3.22 µM,5.54 µM,2.1 µM,1.54 µM,1.66 µM,1.78 µM,–,–
Fc1ccc(NC(=S)Nc2nccs2)cc1,inactive,14.1 µM,–,14 µM,> 80 µM (inactive),> 80 µM,13.6 µM,13.7 µM,14.1 µM,13.3 µM,10.8 µM,12.6 µM,14.3 µM,8.52 µM,13.3 µM
O=C(CSc1cccc2cccnc12)N/N=C/c1cccnc1,6.91 µM,4.34 µM,–,4.25 µM,> 80 µM (inactive),> 80 µM,3.95 µM,4.26 µM,4.72 µM,4.11 µM,4.18 µM,5.05 µM,5.92 µM,3.34 µM,2.87 µM
CCC(=O)OCCNc1cc(Sc2nc3ccccc3[nH]2)c2nonc2c1[N+](=O)[O-],4.57 µM,5.64 µM,–,6.71 µM,27.1 µM,27.1 µM,9.49 µM,7.79 µM,6.65 µM,7.23 µM,4.73 µM,4.66 µM,4.58 µM,5.85 µM,5.42 µM
CCC(=O)OCCNc1cc(Sc2nccn2C)c2nonc2c1[N+](=O)[O-],4.22 µM,4.65 µM,–,4.74 µM,> 80 µM (inactive),> 80 µM,7.36 µM,6.04 µM,4.7 µM,6.06 µM,3.47 µM,3.87 µM,4.26 µM,4.99 µM,4.65 µM
O=[N+]([O-])c1c(NCCCO)cc(Sc2nc3ccccc3s2)c2nonc12,inactive,14.3 µM,118%,13.5 µM,> 80 µM (inactive),> 80 µM,9.5 µM,11.5 µM,11.7 µM,13.2 µM,8.25 µM,8.81 µM,9.37 µM,–,–
Cc1ccccc1Oc1cc(-n2ncc(Cl)c(Cl)c2=O)ncn1,1.57 µM,1.48 µM,105%,1.38 µM,> 80 µM (inactive),> 80 µM,3.31 µM,4.62 µM,5.92 µM,> 80 µM,1.27 µM,1.51 µM,1.75 µM,–,–
CC(=O)NC(=S)Nc1sc2c(c1C(N)=O)CCC(C)C2 (stereo unspecified),> 80 µM (inactive),> 80 µM,-35.8%,> 80 µM,> 80 µM (inactive),> 80 µM,–,> 80 µM,> 80 µM,> 80 µM,–,> 80 µM,> 80 µM,–,–
C=C1C(=O)OC2C1CCC(C)=C1C(=O)C3OC3(C)C12 (stereo unspecified),12.7 µM,10.3 µM,–,9.67 µM,> 80 µM (inactive),> 80 µM,10.9 µM,10.9 µM,11.2 µM,10.6 µM,6.5 µM,6.87 µM,7.24 µM,10.1 µM,8.85 µM
CCOc1ccc(NCC(=O)c2ccc(C)cc2)cc1,inactive,20.7 µM,38.7%,> 80 µM,> 80 µM (inactive),> 80 µM,20.7 µM,24.3 µM,27.9 µM,> 80 µM,14.2 µM,16.3 µM,18.3 µM,–,–
O=C1C=CC2(O[C@H](c3ccccc3)[C@@H](c3ccccc3)O2)[C@H](Sc2ccccc2O)C1,8.69 µM,6.31 µM,121%,3.94 µM,> 80 µM (inactive),> 80 µM,1.65 µM,3.05 µM,5.03 µM,2.46 µM,2.26 µM,3.07 µM,3.87 µM,–,–
